In patent US20260250318A1, “COMPOSITIONS AND METHODS FOR CROSSING THE BLOOD BRAIN BARRIER” (VOYAGER THERAPEUTICS, INC., priority 2022, published 2026):

Test system: brains, heart, liver, muscle, and DRG of the NHPs
Assay: Maturation of TTM-001 and TTM-002 capsids, NGS enrichment in NHP tissues
Format: in vivo
Source text: This Example describes maturation of the AAV9 capsid variants, TTM-001 (SEQ ID NO: 981 (amino acid) and 983 (DNA), comprising SEQ ID NO: 941 (encoded by SEQ ID NO: 942)) and TTM-002 (SEQ ID NO: 982 (amino acid) and 984 (DNA), comprising SEQ ID NO: […] (encoded by SEQ ID NO: 944)) in NHPs to further enhance their transduction and biodistribution in the central nervous system as well as other tissues, and evolve the AAV capsid variants to provide further cross-species compatibility. Two approaches were used to mature the TTM-001 and TTM-002 capsid sequences in order to randomize and mutate within and around the peptide insert comprised within loop IV of the capsid variant. […] In the first maturation approach, sets of three contiguous amino acids were randomized across the mutagenesis region in the TTM-001 and TTM-002 sequences, which spanned from position 450 to position 466, numbered according to SEQ ID NO: 981 and 982. In the second maturation approach, mutagenic primers were used to introduce point mutations at a low frequency, scattered across the mutagenesis region in the TTM-001 and TTM-002 sequences ranging from position 449 to position 466, numbered according to SEQ ID NO: 981 and 982. AAV capsid variants arising from each maturation approach for TTM-001 and TTM-002 were pooled together, for subsequent testing and characterization in NHPs.
The library of pooled matured AAV capsid variants generated using the first maturation approach and the second maturation approach for the TTM-001 and TTM-002 AAV capsid variants were injected into two NHPs. […] Following RNA recovery and RT-PCR amplification, a systematic NGS enrichment analysis was performed to calculate the fold enrichment ratio relative to an AAV9 control, and the peptides comprised within the variants were identified.
Following the RNA recovery and NGS analysis from the second maturation approach, approximately 680,000 capsid variants were identified. The 680,000 matured capsid variants were then filtered based on samples with a raw virus count greater than 10 and a coefficient of variance (CV) of less than 1, which was calculated for each peptide across the brain samples taken from the two NHPs. […] Using this filtering criteria, this led to approximately 64,000 matured capsid variants.

[1] = NHP DRG, NGS, relative to AAV9 control
[2] = NHP brain, NGS, relative to AAV9 control
[3] = NHP heart, NGS, relative to AAV9 control
[4] = NHP liver DNA, NGS, relative to AAV9 control
[5] = NHP liver RNA, NGS, TTM-001 and TTM-002 matured AAV capsid variants, relative to AAV9 control
[6] = NHP muscle, NGS, relative to AAV9 control

Sequence: KTINGSGSPHSKAARRQT
- Fold Enrichment relative to AAV9, DRG (NHP) [1]: 0.000 fold
- Fold Enrichment relative to AAV9, Brain (NHP) [2]: 0.000 fold
- Fold Enrichment relative to AAV9, Heart (NHP) [3]: 0.000 fold
- Fold Enrichment relative to AAV9, Liver DNA (NHP) [4]: 6.633 fold
- Fold Enrichment relative to AAV9, Liver RNA (NHP) [5]: 19.998 fold
- Fold Enrichment relative to AAV9, Muscle (NHP) [6]: 0.000 fold

Sequence: KPRFGSGSPHSKAQNQQT
- Fold Enrichment relative to AAV9, DRG (NHP) [1]: 0.000 fold
- Fold Enrichment relative to AAV9, Brain (NHP) [2]: 0.000 fold
- Fold Enrichment relative to AAV9, Heart (NHP) [3]: 0.000 fold
- Fold Enrichment relative to AAV9, Liver DNA (NHP) [4]: 0.657 fold
- Fold Enrichment relative to AAV9, Liver RNA (NHP) [5]: 27.203 fold
- Fold Enrichment relative to AAV9, Muscle (NHP) [6]: 0.000 fold

Sequence: KTINGSGSPHSKQRPQQT
- Fold Enrichment relative to AAV9, DRG (NHP) [1]: 0.000 fold
- Fold Enrichment relative to AAV9, Brain (NHP) [2]: 0.000 fold
- Fold Enrichment relative to AAV9, Heart (NHP) [3]: 0.000 fold
- Fold Enrichment relative to AAV9, Liver DNA (NHP) [4]: 2.347 fold
- Fold Enrichment relative to AAV9, Liver RNA (NHP) [5]: 11.130 fold
- Fold Enrichment relative to AAV9, Muscle (NHP) [6]: 0.000 fold

Sequence: KTINGSGSPHWVAQNQQT
- Fold Enrichment relative to AAV9, DRG (NHP) [1]: 0.000 fold
- Fold Enrichment relative to AAV9, Brain (NHP) [2]: 0.000 fold
- Fold Enrichment relative to AAV9, Heart (NHP) [3]: 0.000 fold
- Fold Enrichment relative to AAV9, Liver DNA (NHP) [4]: 3.634 fold
- Fold Enrichment relative to AAV9, Liver RNA (NHP) [5]: 11.703 fold
- Fold Enrichment relative to AAV9, Muscle (NHP) [6]: 0.000 fold

Sequence: KTINGSGSPHSMCQNQQT
- Fold Enrichment relative to AAV9, DRG (NHP) [1]: 0.000 fold
- Fold Enrichment relative to AAV9, Brain (NHP) [2]: 0.000 fold
- Fold Enrichment relative to AAV9, Heart (NHP) [3]: 0.000 fold
- Fold Enrichment relative to AAV9, Liver DNA (NHP) [4]: 1.348 fold
- Fold Enrichment relative to AAV9, Liver RNA (NHP) [5]: 37.209 fold
- Fold Enrichment relative to AAV9, Muscle (NHP) [6]: 0.000 fold

Sequence: KTINGSGSPHSKLKRQQT
- Fold Enrichment relative to AAV9, DRG (NHP) [1]: 0.000 fold
- Fold Enrichment relative to AAV9, Brain (NHP) [2]: 0.000 fold
- Fold Enrichment relative to AAV9, Heart (NHP) [3]: 0.000 fold
- Fold Enrichment relative to AAV9, Liver DNA (NHP) [4]: 6.884 fold
- Fold Enrichment relative to AAV9, Liver RNA (NHP) [5]: 76.103 fold
- Fold Enrichment relative to AAV9, Muscle (NHP) [6]: 0.000 fold

Sequence: KTINGSGSPHPKRQNQQT
- Fold Enrichment relative to AAV9, DRG (NHP) [1]: 0.000 fold
- Fold Enrichment relative to AAV9, Brain (NHP) [2]: 0.000 fold
- Fold Enrichment relative to AAV9, Heart (NHP) [3]: 0.000 fold
- Fold Enrichment relative to AAV9, Liver DNA (NHP) [4]: 2.355 fold
- Fold Enrichment relative to AAV9, Liver RNA (NHP) [5]: 23.055 fold
- Fold Enrichment relative to AAV9, Muscle (NHP) [6]: 0.000 fold

Sequence: KTINGSGSPHSKCSVQQT
- Fold Enrichment relative to AAV9, DRG (NHP) [1]: 0.000 fold
- Fold Enrichment relative to AAV9, Brain (NHP) [2]: 0.000 fold
- Fold Enrichment relative to AAV9, Heart (NHP) [3]: 0.000 fold
- Fold Enrichment relative to AAV9, Liver DNA (NHP) [4]: 1.465 fold
- Fold Enrichment relative to AAV9, Liver RNA (NHP) [5]: 12.246 fold
- Fold Enrichment relative to AAV9, Muscle (NHP) [6]: 0.000 fold

Sequence: KPARGSGSPHSKAQNQQT
- Fold Enrichment relative to AAV9, DRG (NHP) [1]: 0.000 fold
- Fold Enrichment relative to AAV9, Brain (NHP) [2]: 0.000 fold
- Fold Enrichment relative to AAV9, Heart (NHP) [3]: 0.000 fold
- Fold Enrichment relative to AAV9, Liver DNA (NHP) [4]: 1.391 fold
- Fold Enrichment relative to AAV9, Liver RNA (NHP) [5]: 16.793 fold
- Fold Enrichment relative to AAV9, Muscle (NHP) [6]: 0.000 fold

Sequence: KTINGSISPHCPAQNQQT
- Fold Enrichment relative to AAV9, DRG (NHP) [1]: 0.000 fold
- Fold Enrichment relative to AAV9, Brain (NHP) [2]: 0.000 fold
- Fold Enrichment relative to AAV9, Heart (NHP) [3]: 0.000 fold
- Fold Enrichment relative to AAV9, Liver DNA (NHP) [4]: 0.556 fold
- Fold Enrichment relative to AAV9, Liver RNA (NHP) [5]: 24.932 fold
- Fold Enrichment relative to AAV9, Muscle (NHP) [6]: 0.000 fold

Sequence: KTINGSGSPHGRYQNQQT
- Fold Enrichment relative to AAV9, DRG (NHP) (NGS fold-enrichment, DRG, NHP, relative to AAV9): 0.000 fold
- Fold Enrichment relative to AAV9, Brain (NHP) (NGS fold-enrichment, brain, NHP, relative to AAV9): 0.000 fold
- Fold Enrichment relative to AAV9, Heart (NHP) (NGS fold-enrichment, heart, NHP, relative to AAV9): 0.000 fold
- Fold Enrichment relative to AAV9, Liver DNA (NHP) (NGS fold-enrichment, liver DNA, NHP, relative to AAV9): 0.778 fold
- Fold Enrichment relative to AAV9, Liver RNA (NHP) (NGS fold-enrichment, liver RNA, NHP, relative to AAV9): 10.028 fold
- Fold Enrichment relative to AAV9, Muscle (NHP) (NGS fold-enrichment, muscle, NHP, relative to AAV9): 0.000 fold

Sequence: KTINGAYSPHRKAQNQQT
- Fold Enrichment relative to AAV9, DRG (NHP) [1]: 0.000 fold
- Fold Enrichment relative to AAV9, Brain (NHP) [2]: 0.000 fold
- Fold Enrichment relative to AAV9, Heart (NHP) [3]: 0.000 fold
- Fold Enrichment relative to AAV9, Liver DNA (NHP) [4]: 1.283 fold
- Fold Enrichment relative to AAV9, Liver RNA (NHP) [5]: 40.969 fold
- Fold Enrichment relative to AAV9, Muscle (NHP) [6]: 0.000 fold

Sequence: KTINGSGSPHSMCTNQQT
- Fold Enrichment relative to AAV9, DRG (NHP) [1]: 0.000 fold
- Fold Enrichment relative to AAV9, Brain (NHP) [2]: 0.000 fold
- Fold Enrichment relative to AAV9, Heart (NHP) [3]: 0.000 fold
- Fold Enrichment relative to AAV9, Liver DNA (NHP) [4]: 0.392 fold
- Fold Enrichment relative to AAV9, Liver RNA (NHP) [5]: 13.114 fold
- Fold Enrichment relative to AAV9, Muscle (NHP) [6]: 0.000 fold

Sequence: KTINGSGSPHLCTQNQQT
- Fold Enrichment relative to AAV9, DRG (NHP) [1]: 0.000 fold
- Fold Enrichment relative to AAV9, Brain (NHP) [2]: 0.000 fold
- Fold Enrichment relative to AAV9, Heart (NHP) [3]: 0.000 fold
- Fold Enrichment relative to AAV9, Liver DNA (NHP) [4]: 2.489 fold
- Fold Enrichment relative to AAV9, Liver RNA (NHP) [5]: 11.176 fold
- Fold Enrichment relative to AAV9, Muscle (NHP) [6]: 0.000 fold

Sequence: KTINCRTSPHSKAQNQQT
- Fold Enrichment relative to AAV9, DRG (NHP) [1]: 0.000 fold
- Fold Enrichment relative to AAV9, Brain (NHP) [2]: 0.000 fold
- Fold Enrichment relative to AAV9, Heart (NHP) [3]: 0.000 fold
- Fold Enrichment relative to AAV9, Liver DNA (NHP) [4]: 1.117 fold
- Fold Enrichment relative to AAV9, Liver RNA (NHP) [5]: 28.301 fold
- Fold Enrichment relative to AAV9, Muscle (NHP) [6]: 0.000 fold

Sequence: KTINGSGSPHSYARNQQT
- Fold Enrichment relative to AAV9, DRG (NHP) [1]: 0.000 fold
- Fold Enrichment relative to AAV9, Brain (NHP) [2]: 0.000 fold
- Fold Enrichment relative to AAV9, Heart (NHP) [3]: 0.000 fold
- Fold Enrichment relative to AAV9, Liver DNA (NHP) [4]: 0.996 fold
- Fold Enrichment relative to AAV9, Liver RNA (NHP) [5]: 11.131 fold
- Fold Enrichment relative to AAV9, Muscle (NHP) [6]: 0.000 fold

Sequence: KTINGSGSPHSKARWQQT
- Fold Enrichment relative to AAV9, DRG (NHP) [1]: 0.000 fold
- Fold Enrichment relative to AAV9, Brain (NHP) [2]: 0.000 fold
- Fold Enrichment relative to AAV9, Heart (NHP) [3]: 0.000 fold
- Fold Enrichment relative to AAV9, Liver DNA (NHP) [4]: 2.377 fold
- Fold Enrichment relative to AAV9, Liver RNA (NHP) [5]: 45.017 fold
- Fold Enrichment relative to AAV9, Muscle (NHP) [6]: 0.000 fold

Sequence: KTINGSGSPHSKFKNQQT
- Fold Enrichment relative to AAV9, DRG (NHP) [1]: 0.000 fold
- Fold Enrichment relative to AAV9, Brain (NHP) [2]: 0.000 fold
- Fold Enrichment relative to AAV9, Heart (NHP) [3]: 0.000 fold
- Fold Enrichment relative to AAV9, Liver DNA (NHP) [4]: 1.074 fold
- Fold Enrichment relative to AAV9, Liver RNA (NHP) [5]: 21.951 fold
- Fold Enrichment relative to AAV9, Muscle (NHP) [6]: 0.000 fold
